According to patent US20230233569A1 (Revolution Medicines, Inc., priority 2020, published 2023):
Like-named read-outs stand apart in the source and are kept apart here.

Tests used:
KRAS G12S = KRAS G12S (Homo sapiens, UniProt P01116+P62937, G12S); test: Disruption of BRAF RBD interaction with Ras (FRET / MOA assay, with Cyclophilin A); assay type: biochemical
Procedure, shortened: (§1)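 TR-FRET: nucleotide-loaded K-Ras mutant or WT with Cyclophilin A and BRAF RBD, compound 10-point 3-fold from 30 μM final, 3 h at 25° C, then anti-His Eu (10 nM) and anti-GST APC (50 nM) for 1.5 h. Decreased FRET ratio versus DMSO gives IC50.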

KRAS G12D = KRAS G12D (Homo sapiens, UniProt P01116+P62937, G12D); test: as above; assay type: biochemical
Procedure, shortened: as §1

KRAS G13C = KRAS G13C (Homo sapiens, UniProt P01116+P62937, G13C); test: as above; assay type: biochemical
Procedure, shortened: as §1

KRAS G13D = KRAS G13D (Homo sapiens, UniProt P01116+P62937, G13D); test: as above; assay type: biochemical
Procedure, shortened: as §1

KRAS G12V = KRAS G12V (Homo sapiens, UniProt P01116+P62937, G12V); test: as above; assay type: biochemical
Procedure, shortened: as §1

NRAS G12C = NRAS G12C (Homo sapiens, UniProt P01111+P62937, G12C); test: as above; assay type: biochemical
KRAS WT = KRAS WT (Homo sapiens, UniProt P01116+P62937); test: as above; assay type: biochemical
Procedure, shortened: as §1

KRAS G12C = KRAS G12C (Homo sapiens, UniProt P01116+P62937, G12C); test: as above; assay type: biochemical
Procedure, shortened: as §1

Capan-1 (K-Ras G12V) = test: CellTiter-Glo cell viability assay, 5-day treatment; assay type: cell-based; settings: Homo sapiens, CAPAN-1, 120 h, 5-day treatment; read-out: Capan-1 Cell Viability assay data (K-Ras G12V, IC50)
Procedure, shortened: (§2)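 Compounds were dispensed directly onto seeded cells and incubated for 5 days, then plates were equilibrated to room temperature for about 30 minutes before luminescence reading. Signals were expressed as percent of the mean DMSO control and fitted with a four-parameter logistic curve.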

NCI-H358 (K-Ras G12C) = test: as above; assay type: cell-based; settings: Homo sapiens, NCI-H358, 120 h, 5-day treatment; read-out: H358 Cell Viability assay data (K-Ras G12C, IC50)
Procedure, shortened: as §2

KRAS Q61H = KRAS Q61H (Homo sapiens, UniProt P01116+P62937, Q61H); test: Disruption of BRAF RBD interaction with Ras (FRET / MOA assay, with Cyclophilin A); assay type: biochemical
Procedure, shortened: (§3)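 TR-FRET in 25 mM HEPES pH 7.3, 100 mM NaCl, 5 mM MgCl2, 0.1% BSA: 25 μM Cyclophilin A, 12.5 nM His6-Ras-GMPPNP, 50 nM GST-BRAF RBD with compound (10-point 3-fold series from 30 μM), 3 h at 25° C. Anti-His Eu/anti-GST APC added, 1.5 h more; IC50 from decreased FRET ratio versus DMSO.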

NRAS WT = NRAS WT (Homo sapiens, UniProt P01111+P62937); test: as above; assay type: biochemical
Procedure, shortened: as §3

NRAS Q61R = NRAS Q61R (Homo sapiens, UniProt P01111+P62937, Q61R); test: as above; assay type: biochemical
Procedure, shortened: as §3

NRAS Q61K = NRAS Q61K (Homo sapiens, UniProt P01111+P62937, Q61K); test: as above; assay type: biochemical
Procedure, shortened: as §3

[1] = read-out: KRAS G12S FRET data, IC50
[2] = read-out: KRAS G12D FRET data, IC50
[3] = read-out: KRAS G13C FRET data, IC50
[4] = KRAS G13D, read-out: KRAS G13D FRET data IC50
[5] = KRAS G12V, read-out: KRAS G12V FRET data IC50
[6] = NRAS G12C, read-out: NRAS G12C FRET data IC50
[7] = KRAS WT, read-out: KRAS WT FRET data IC50
[8] = read-out: KRAS G12C FRET data, IC50
[9] = KRAS Q61H, read-out: KRAS Q61H FRET data IC50
[10] = NRAS WT, read-out: NRAS WT FRET data IC50
[11] = NRAS Q61R, read-out: NRAS Q61R FRET data IC50
[12] = NRAS Q61K, read-out: NRAS Q61K FRET data IC50

KRAS G13D, sequence (P01116 1-169 isoform P01116-2 G13D limits assumed): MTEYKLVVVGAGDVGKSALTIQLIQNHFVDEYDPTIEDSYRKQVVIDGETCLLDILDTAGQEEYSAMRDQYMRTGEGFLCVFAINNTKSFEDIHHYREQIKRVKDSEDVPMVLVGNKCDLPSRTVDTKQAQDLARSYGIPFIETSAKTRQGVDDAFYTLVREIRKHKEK
KRAS G13D, sequence (P62937 whole entry): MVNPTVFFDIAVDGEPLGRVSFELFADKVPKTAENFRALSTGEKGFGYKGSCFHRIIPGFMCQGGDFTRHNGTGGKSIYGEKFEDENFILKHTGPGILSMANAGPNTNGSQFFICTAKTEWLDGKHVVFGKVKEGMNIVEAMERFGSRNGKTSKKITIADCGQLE
KRAS G13C, sequence (P01116 1-169 isoform P01116-2 G13C): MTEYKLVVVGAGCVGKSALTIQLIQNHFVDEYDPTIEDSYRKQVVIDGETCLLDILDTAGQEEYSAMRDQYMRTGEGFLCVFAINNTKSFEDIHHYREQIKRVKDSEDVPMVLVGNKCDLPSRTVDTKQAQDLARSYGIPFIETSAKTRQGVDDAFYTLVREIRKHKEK
KRAS G13C, sequence (P62937 whole entry): as the sequence (P62937 whole entry) above
NRAS Q61R, sequence (P01111 whole entry Q61R): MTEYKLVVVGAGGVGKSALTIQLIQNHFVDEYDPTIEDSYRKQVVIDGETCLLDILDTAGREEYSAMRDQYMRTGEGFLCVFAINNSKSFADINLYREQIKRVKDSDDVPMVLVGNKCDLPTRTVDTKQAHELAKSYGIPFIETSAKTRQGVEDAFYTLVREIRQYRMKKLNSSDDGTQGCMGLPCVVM
NRAS Q61R, sequence (P62937 whole entry): as the sequence (P62937 whole entry) above
KRAS G12V, sequence (P01116 1-169 isoform P01116-2 G12V limits assumed): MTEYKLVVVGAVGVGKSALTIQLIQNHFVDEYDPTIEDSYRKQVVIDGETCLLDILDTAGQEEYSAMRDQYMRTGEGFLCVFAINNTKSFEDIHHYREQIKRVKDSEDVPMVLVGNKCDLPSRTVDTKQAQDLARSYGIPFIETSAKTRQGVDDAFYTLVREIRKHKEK
KRAS G12V, sequence (P62937 whole entry): as the sequence (P62937 whole entry) above
KRAS G12S, sequence (P01116 1-169 isoform P01116-2 G12S limits assumed): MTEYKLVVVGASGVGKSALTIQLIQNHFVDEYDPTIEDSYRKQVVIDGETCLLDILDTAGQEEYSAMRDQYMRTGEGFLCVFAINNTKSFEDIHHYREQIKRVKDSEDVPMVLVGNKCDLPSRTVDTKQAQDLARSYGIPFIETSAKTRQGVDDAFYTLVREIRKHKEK
KRAS G12S, sequence (P62937 whole entry): as the sequence (P62937 whole entry) above
NRAS WT, sequence (P01111 whole entry): as the sequence (P01111 whole entry Q61R) above, with R61Q counted along it
NRAS WT, sequence (P62937 whole entry): as the sequence (P62937 whole entry) above
KRAS G12D, sequence (P01116 1-169 isoform P01116-2 G12D limits assumed): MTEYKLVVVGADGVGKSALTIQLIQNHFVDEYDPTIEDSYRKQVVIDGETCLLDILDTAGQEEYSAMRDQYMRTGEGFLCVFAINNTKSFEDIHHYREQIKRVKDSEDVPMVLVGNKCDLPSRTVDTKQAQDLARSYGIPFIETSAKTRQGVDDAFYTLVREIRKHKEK
KRAS G12D, sequence (P62937 whole entry): as the sequence (P62937 whole entry) above
KRAS Q61H, sequence (P01116 1-169 isoform P01116-2 Q61H limits assumed): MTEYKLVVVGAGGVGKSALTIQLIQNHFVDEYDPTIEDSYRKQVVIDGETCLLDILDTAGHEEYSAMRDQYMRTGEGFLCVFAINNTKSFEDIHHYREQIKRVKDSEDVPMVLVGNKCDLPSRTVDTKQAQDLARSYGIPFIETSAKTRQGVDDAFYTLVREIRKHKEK
KRAS Q61H, sequence (P62937 whole entry): as the sequence (P62937 whole entry) above
KRAS G12C, sequence (P01116 1-169 isoform P01116-2 G12C): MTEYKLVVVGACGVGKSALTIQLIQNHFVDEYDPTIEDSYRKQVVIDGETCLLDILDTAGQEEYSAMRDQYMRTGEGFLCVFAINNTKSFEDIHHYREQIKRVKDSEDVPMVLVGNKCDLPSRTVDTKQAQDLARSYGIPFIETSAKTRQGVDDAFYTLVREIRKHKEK
KRAS G12C, sequence (P62937 whole entry): as the sequence (P62937 whole entry) above
NRAS Q61K, sequence (P01111 whole entry Q61K): as the sequence (P01111 whole entry Q61R) above, with R61K counted along it
NRAS Q61K, sequence (P62937 whole entry): as the sequence (P62937 whole entry) above
KRAS WT, sequence (P01116 1-169 isoform P01116-2 limits assumed): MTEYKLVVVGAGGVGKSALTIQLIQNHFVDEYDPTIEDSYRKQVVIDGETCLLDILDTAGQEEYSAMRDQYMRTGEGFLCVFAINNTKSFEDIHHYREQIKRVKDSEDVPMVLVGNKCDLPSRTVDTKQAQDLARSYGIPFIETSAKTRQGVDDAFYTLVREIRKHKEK
KRAS WT, sequence (P62937 whole entry): as the sequence (P62937 whole entry) above
NRAS G12C, sequence (P01111 whole entry G12C): as the sequence (P01111 whole entry Q61R) above, with G12C, R61Q counted along it
NRAS G12C, sequence (P62937 whole entry): as the sequence (P62937 whole entry) above

Row | IC50 (KRAS G12S; [1]) [nM] | IC50 (KRAS G12D; [2]) [nM] | IC50 (KRAS G13C; [3]) [nM] | IC50 (KRAS G13D; [4]) [nM] | IC50 (KRAS G12V; [5]) [nM] | IC50 (NRAS G12C; [6]) [nM] | IC50 (KRAS WT; [7]) [nM] | IC50 (KRAS G12C; [8]) [nM] | IC50 (NCI-H358 (K-Ras G12C)) [nM] | IC50 (KRAS Q61H; [9]) [nM] | IC50 (NRAS WT; [10]) [nM] | IC50 (NRAS Q61R; [11]) [nM] | IC50 (NRAS Q61K; [12]) [nM] | Compound | IC50 (Capan-1 (K-Ras G12V)) [nM] | further results
1 | 1000 to 10000 | 100 to 1000 | 100 to 1000 | 1000 to 10000 | 1000 to 10000 | 100 to 1000 | 100 to 1000 | 100 to 1000 | > 10000 | 100 to 1000 | 100 to 1000 | 1000 to 10000 | 1000 to 10000 | CCn1c(-c2cccnc2[C@H](C)OC)c2c3cc(ccc31)-c1csc(n1)C[C@H](NC(=O)[C@H](C(C)C)N(C)C(=O)[C@H]1CCN(C(=O)CNC)C1)C(=O)N1CCC[C@H](N1)C(=O)OCC(C)(C)C2 [Example A99] | > 10000 | 
2 | 100 to 1000 | 100 to 1000 | 10 to 100 | 100 to 1000 | 100 to 1000 | 100 to 1000 | 100 to 1000 | 100 to 1000 | 1000 to 10000 | 10 to 100 | 100 to 1000 | 100 to 1000 | 100 to 1000 | CCn1c(-c2cnccc2COC)c2c3cc(ccc31)-c1cc(O)cc(c1)C[C@H](NC(=O)[C@H](C(C)C)N1COCC1=O)C(=O)N1CCC[C@H](N1)C(=O)OCC(C)(C)C2 [Example A102] | 100 to 1000 | 
3 | 1000 to 10000 | 1000 to 10000 | 1000 to 10000 | 1000 to 10000 | 1000 to 10000 | 1000 to 10000 | 1000 to 10000 | 1000 to 10000 | 100 to 1000 | 100 to 1000 | 1000 to 10000 | 1000 to 10000 | 100 to 1000 | CCn1c(-c2cccnc2[C@H](C)OC)c2c3cc(ccc31)-c1nc(cs1)C[C@H](NC(=O)[C@H](C(C)C)N(C)C(C)=O)C(=O)N1CCC[C@H](N1)C(=O)OCC(C)(C)C2 [Example A152] | 100 to 1000 | 
4 | 100 to 1000 | 100 to 1000 | 100 to 1000 | 100 to 1000 | 100 to 1000 | 100 to 1000 | 100 to 1000 | 100 to 1000 | 100 to 1000 | 10 to 100 | 100 to 1000 | 100 to 1000 | 100 to 1000 | CCn1c(-c2cccnc2[C@H](C)OC)c2c3cc(ccc31)-c1cc(O)cc(c1)C[C@H](NC(=O)[C@H](C(C)C)N(C)C(=O)OC1CC1)C(=O)N1CCC[C@H](N1)C(=O)OCC(C)(C)C2 [Example A174] | 100 to 1000 | 

Row | Compound | IC50 (KRAS G12S; [1]) [nM] | IC50 (KRAS G12D; [2]) [nM] | IC50 (KRAS G13C; [3]) [nM] | IC50 (KRAS G13D; [4]) [nM] | IC50 (KRAS G12V; [5]) [nM] | IC50 (NRAS G12C; [6]) [nM] | IC50 (KRAS WT; [7]) [nM] | IC50 (KRAS G12C; [8]) [nM] | IC50 (NCI-H358 (K-Ras G12C)) [nM] | IC50 (KRAS Q61H; [9]) [nM] | IC50 (NRAS WT; [10]) [nM] | IC50 (NRAS Q61R; [11]) [nM] | IC50 (NRAS Q61K; [12]) [nM] | IC50 (Capan-1 (K-Ras G12V)) [nM] | further results
5 | CCn1c(-c2cccnc2[C@H](C)OC)c2c3cc(ccc31)-c1csc(n1)C[C@H](NC(=O)[C@H](C(C)C)N(C)C(=O)OC)C(=O)N1CCC[C@H](N1)C(=O)OCC(C)(C)C2 [Example A138] |  |  |  |  |  |  |  |  | 10 to 100 |  |  |  |  | 10 to 100 | IC50 (KRAS G12S; KRAS G12S FRET data, IC50): 1000 to 10000 nM; IC50 (KRAS G12D; KRAS G12D FRET data, IC50): 1000 to 10000 nM; IC50 (KRAS G13C; KRAS G13C FRET data, IC50): 100 to 1000 nM; IC50 (KRAS G13D; KRAS G13D FRET data IC50, KRAS G13D): 1000 to 10000 nM; IC50 (KRAS G12V; KRAS G12V FRET data IC50, KRAS G12V): 100 to 1000 nM; IC50 (NRAS G12C; NRAS G12C FRET data IC50, NRAS G12C): 100 to 1000 nM; IC50 (KRAS WT; KRAS WT FRET data IC50, KRAS WT): 100 to 1000 nM; IC50 (KRAS G12C; KRAS G12C FRET data, IC50): 100 to 1000 nM; IC50 (KRAS Q61H; KRAS Q61H FRET data IC50, KRAS Q61H): 100 to 1000 nM; IC50 (NRAS WT; NRAS WT FRET data IC50, NRAS WT): 100 to 1000 nM; IC50 (NRAS Q61R; NRAS Q61R FRET data IC50, NRAS Q61R): 100 to 1000 nM; IC50 (NRAS Q61K; NRAS Q61K FRET data IC50, NRAS Q61K): 100 to 1000 nM
